Source: the supplement of paper PMC10307832

What was measured:
Assay in all cases: relative viability (nuclei count vs DMSO), 5 days (fraction); higher = more cells survive
Midostaurin + Foretinib = compound: CO[C@@H]1[C@H](N(C)C(=O)c2ccccc2)C[C@H]2O[C@]1(C)n1c3ccccc3c3c4c(c5c6ccccc6n2c5c31)C(=O)NC4 [Midostaurin] + COc1cc2c(Oc3ccc(NC(=O)C4(C(=O)Nc5ccc(F)cc5)CC4)cc3F)ccnc2cc1OCCCN1CCOCC1 [Foretinib] (partner 0.25 µM)
Outline: (§1)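 Lung cancer cell lines in 1536-well plates got either a single drug or a fixed anchor-drug dose together with five library-drug doses (not always all listed) in √10 steps, by pin tool, on the day after seeding. Nuclei were counted after 5 days, and relative viability is the treated-to-vehicle ratio of nuclei counts. Values are medians of duplicate plates.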

[1] = compound: COc1cc(-c2nn([C@H]3CC[C@H](N4CCN(C(C)=O)CC4)CC3)c3ncnc(N)c23)ccc1NC(=O)c1cc2ccccc2n1C + NC(=O)Nc1cc(-c2cccc(F)c2)sc1C(=O)N[C@H]1CCCNC1 [AZD7762] (partner 0.2 µM)
Outline: as §1

Midostaurin + Pictilisib = compound: CO[C@@H]1[C@H](N(C)C(=O)c2ccccc2)C[C@H]2O[C@]1(C)n1c3ccccc3c3c4c(c5c6ccccc6n2c5c31)C(=O)NC4 [Midostaurin] + CS(=O)(=O)N1CCN(Cc2cc3nc(-c4cccc5[nH]ncc45)nc(N4CCOCC4)c3s2)CC1 [Pictilisib] (partner 1 µM)
Outline: as §1

Midostaurin + Vorinostat = compound: CO[C@@H]1[C@H](N(C)C(=O)c2ccccc2)C[C@H]2O[C@]1(C)n1c3ccccc3c3c4c(c5c6ccccc6n2c5c31)C(=O)NC4 [Midostaurin] + O=C(CCCCCCC(=O)Nc1ccccc1)NO [Vorinostat] (partner 1 µM)
Outline: as §1

[2] = compound: COc1cc(-c2nn([C@H]3CC[C@H](N4CCN(C(C)=O)CC4)CC3)c3ncnc(N)c23)ccc1NC(=O)c1cc2ccccc2n1C + CC(=O)Nc1cccc(-n2c(=O)n(C3CC3)c(=O)c3c(Nc4ccc(I)cc4F)n(C)c(=O)c(C)c32)c1 [Trametinib] (partner 0.02 µM)
Outline: as §1

NCI-H647
relative viability (Midostaurin + Foretinib; first compound 0.01 µM): 1.14
relative viability (Midostaurin + Foretinib; first compound 0.03162 µM): 1.2
relative viability (Midostaurin + Foretinib; first compound 0.1 µM): 1.2
relative viability (Midostaurin + Foretinib; first compound 0.3162 µM): 1.14
relative viability ([1]; first compound 0.0128 µM): 0.503
relative viability ([1]; first compound 0.04048 µM): 0.602
relative viability ([1]; first compound 0.128 µM): 0.403
relative viability ([1]; first compound 1.28 µM): 0.367
relative viability (Midostaurin + Pictilisib; first compound 0.01 µM): 0.387
relative viability (Midostaurin + Pictilisib; first compound 0.03162 µM): 0.532
relative viability (Midostaurin + Pictilisib; first compound 0.1 µM): 0.311
relative viability (Midostaurin + Pictilisib; first compound 0.3162 µM): 0.294
relative viability (Midostaurin + Vorinostat; first compound 0.01 µM): 0.591
relative viability (Midostaurin + Vorinostat; first compound 0.03162 µM): 0.988
relative viability (Midostaurin + Vorinostat; first compound 0.1 µM): 0.536
relative viability (Midostaurin + Vorinostat; first compound 0.3162 µM): 0.275
relative viability ([2]; first compound 0.0128 µM): 0.543
relative viability ([2]; first compound 0.04048 µM): 0.265
relative viability ([2]; first compound 0.128 µM): 0.333
relative viability ([2]; first compound 1.28 µM): 0.169

NCI-H650
relative viability (Midostaurin + Foretinib; first compound 0.01 µM): 0.959
relative viability (Midostaurin + Foretinib; first compound 0.03162 µM): 0.95
relative viability (Midostaurin + Foretinib; first compound 0.1 µM): 1.01
relative viability (Midostaurin + Foretinib; first compound 0.3162 µM): 0.767
relative viability ([1]; first compound 0.0128 µM): 1.13
relative viability ([1]; first compound 0.04048 µM): 1.02
relative viability ([1]; first compound 0.128 µM): 0.975
relative viability ([1]; first compound 1.28 µM): 0.935
relative viability (Midostaurin + Pictilisib; first compound 0.01 µM): 0.829
relative viability (Midostaurin + Pictilisib; first compound 0.03162 µM): 0.794
relative viability (Midostaurin + Pictilisib; first compound 0.1 µM): 0.835
relative viability (Midostaurin + Pictilisib; first compound 0.3162 µM): 0.628
relative viability (Midostaurin + Vorinostat; first compound 0.01 µM): 0.431
relative viability (Midostaurin + Vorinostat; first compound 0.03162 µM): 0.474
relative viability (Midostaurin + Vorinostat; first compound 0.1 µM): 0.875
relative viability (Midostaurin + Vorinostat; first compound 0.3162 µM): 0.412
relative viability ([2]; first compound 0.0128 µM): 0.993
relative viability ([2]; first compound 0.04048 µM): 0.501
relative viability ([2]; first compound 0.128 µM): 1.15
relative viability ([2]; first compound 1.28 µM): 0.879

NCI-H727
relative viability (Midostaurin + Foretinib; first compound 0.01 µM): 1.11
relative viability (Midostaurin + Foretinib; first compound 0.03162 µM): 0.932
relative viability (Midostaurin + Foretinib; first compound 0.1 µM): 0.829
relative viability (Midostaurin + Foretinib; first compound 0.3162 µM): 0.846
relative viability ([1]; first compound 0.0128 µM): 0.562
relative viability ([1]; first compound 0.128 µM): 0.716
relative viability ([1]; first compound 1.28 µM): 0.575
relative viability (Midostaurin + Pictilisib; first compound 0.01 µM): 0.491
relative viability (Midostaurin + Pictilisib; first compound 0.03162 µM): 0.301
relative viability (Midostaurin + Pictilisib; first compound 0.1 µM): 0.378
relative viability (Midostaurin + Pictilisib; first compound 0.3162 µM): 0.329
relative viability (Midostaurin + Vorinostat; first compound 0.01 µM): 1.4
relative viability (Midostaurin + Vorinostat; first compound 0.03162 µM): 1.11
relative viability (Midostaurin + Vorinostat; first compound 0.1 µM): 1.16
relative viability (Midostaurin + Vorinostat; first compound 0.3162 µM): 1.26
relative viability ([2]; first compound 0.0128 µM): 0.415
relative viability ([2]; first compound 0.128 µM): 0.37
relative viability ([2]; first compound 1.28 µM): 0.341

NCI-H838
relative viability (Midostaurin + Foretinib; first compound 0.01 µM): 1.05
relative viability (Midostaurin + Foretinib; first compound 0.03162 µM): 0.939
relative viability (Midostaurin + Foretinib; first compound 0.1 µM): 0.759
relative viability (Midostaurin + Foretinib; first compound 0.3162 µM): 0.497
relative viability ([1]; first compound 0.0128 µM): 1
relative viability ([1]; first compound 0.04048 µM): 0.921
relative viability ([1]; first compound 0.128 µM): 0.91
relative viability ([1]; first compound 1.28 µM): 0.75
relative viability (Midostaurin + Pictilisib; first compound 0.01 µM): 0.565
relative viability (Midostaurin + Pictilisib; first compound 0.03162 µM): 0.48
relative viability (Midostaurin + Pictilisib; first compound 0.1 µM): 0.302
relative viability (Midostaurin + Pictilisib; first compound 0.3162 µM): 0.276
relative viability (Midostaurin + Vorinostat; first compound 0.01 µM): 0.72
relative viability (Midostaurin + Vorinostat; first compound 0.03162 µM): 0.705
relative viability (Midostaurin + Vorinostat; first compound 0.1 µM): 0.606
relative viability (Midostaurin + Vorinostat; first compound 0.3162 µM): 0.262
relative viability ([2]; first compound 0.0128 µM): 0.5
relative viability ([2]; first compound 0.04048 µM): 0.479
relative viability ([2]; first compound 0.128 µM): 0.506
relative viability ([2]; first compound 1.28 µM): 0.403

NCI-H1355
relative viability (Midostaurin + Foretinib; first compound 0.01 µM): 1.02
relative viability (Midostaurin + Foretinib; first compound 0.03162 µM): 0.913
relative viability (Midostaurin + Foretinib; first compound 0.1 µM): 0.817
relative viability (Midostaurin + Foretinib; first compound 0.3162 µM): 0.971
relative viability ([1]; first compound 0.0128 µM): 0.75
relative viability ([1]; first compound 0.04048 µM): 0.788
relative viability ([1]; first compound 0.128 µM): 0.654
relative viability ([1]; first compound 1.28 µM): 0.619
relative viability (Midostaurin + Pictilisib; first compound 0.01 µM): 0.415
relative viability (Midostaurin + Pictilisib; first compound 0.03162 µM): 0.381
relative viability (Midostaurin + Pictilisib; first compound 0.1 µM): 0.401
relative viability (Midostaurin + Pictilisib; first compound 0.3162 µM): 0.526
relative viability (Midostaurin + Vorinostat; first compound 0.01 µM): 0.665
relative viability (Midostaurin + Vorinostat; first compound 0.03162 µM): 0.672
relative viability (Midostaurin + Vorinostat; first compound 0.1 µM): 0.619
relative viability (Midostaurin + Vorinostat; first compound 0.3162 µM): 0.667
relative viability ([2]; first compound 0.0128 µM): 0.416
relative viability ([2]; first compound 0.04048 µM): 0.313
relative viability ([2]; first compound 0.128 µM): 0.387
relative viability ([2]; first compound 1.28 µM): 0.447

NCI-H1395
relative viability (Midostaurin + Foretinib; first compound 0.01 µM): 1.12
relative viability (Midostaurin + Foretinib; first compound 0.03162 µM): 1.07
relative viability (Midostaurin + Foretinib; first compound 0.1 µM): 0.992
relative viability (Midostaurin + Foretinib; first compound 0.3162 µM): 1.1
relative viability ([1]; first compound 0.0128 µM): 0.459
relative viability ([1]; first compound 0.04048 µM): 0.394
relative viability ([1]; first compound 0.128 µM): 0.402
relative viability ([1]; first compound 1.28 µM): 0.322
relative viability (Midostaurin + Pictilisib; first compound 0.01 µM): 0.592
relative viability (Midostaurin + Pictilisib; first compound 0.03162 µM): 0.588
relative viability (Midostaurin + Pictilisib; first compound 0.1 µM): 0.588
relative viability (Midostaurin + Pictilisib; first compound 0.3162 µM): 0.615
relative viability (Midostaurin + Vorinostat; first compound 0.01 µM): 0.651
relative viability (Midostaurin + Vorinostat; first compound 0.03162 µM): 0.856
relative viability (Midostaurin + Vorinostat; first compound 0.1 µM): 0.671
relative viability (Midostaurin + Vorinostat; first compound 0.3162 µM): 0.682
relative viability ([2]; first compound 0.0128 µM): 1.02
relative viability ([2]; first compound 0.04048 µM): 0.945
relative viability ([2]; first compound 0.128 µM): 0.967
relative viability ([2]; first compound 1.28 µM): 0.667

NCI-H1437
relative viability (Midostaurin + Foretinib; first compound 0.01 µM): 1.26
relative viability (Midostaurin + Foretinib; first compound 0.03162 µM): 1.09
relative viability (Midostaurin + Foretinib; first compound 0.1 µM): 1.22
relative viability (Midostaurin + Foretinib; first compound 0.3162 µM): 1.22
relative viability ([1]; first compound 0.0128 µM): 1.14
relative viability ([1]; first compound 0.04048 µM): 1.15
relative viability ([1]; first compound 0.128 µM): 1.04
relative viability ([1]; first compound 1.28 µM): 0.96
relative viability (Midostaurin + Pictilisib; first compound 0.01 µM): 0.58
relative viability (Midostaurin + Pictilisib; first compound 0.03162 µM): 0.567
relative viability (Midostaurin + Pictilisib; first compound 0.1 µM): 0.567
relative viability (Midostaurin + Pictilisib; first compound 0.3162 µM): 0.599
relative viability (Midostaurin + Vorinostat; first compound 0.01 µM): 0.869
relative viability (Midostaurin + Vorinostat; first compound 0.03162 µM): 0.833
relative viability (Midostaurin + Vorinostat; first compound 0.1 µM): 0.818
relative viability (Midostaurin + Vorinostat; first compound 0.3162 µM): 0.654
relative viability ([2]; first compound 0.0128 µM): 0.527
relative viability ([2]; first compound 0.04048 µM): 0.609
relative viability ([2]; first compound 0.128 µM): 0.492
relative viability ([2]; first compound 1.28 µM): 0.33

NCI-H1651
relative viability (Midostaurin + Foretinib; first compound 0.01 µM): 0.882
relative viability (Midostaurin + Foretinib; first compound 0.03162 µM): 0.819
relative viability (Midostaurin + Foretinib; first compound 0.1 µM): 0.764
relative viability (Midostaurin + Foretinib; first compound 0.3162 µM): 0.683
relative viability ([1]; first compound 0.0128 µM): 0.466
relative viability ([1]; first compound 0.04048 µM): 0.457
relative viability ([1]; first compound 0.128 µM): 0.49
relative viability ([1]; first compound 1.28 µM): 0.397
relative viability (Midostaurin + Pictilisib; first compound 0.01 µM): 0.543
relative viability (Midostaurin + Pictilisib; first compound 0.03162 µM): 0.575
relative viability (Midostaurin + Pictilisib; first compound 0.1 µM): 0.529
relative viability (Midostaurin + Pictilisib; first compound 0.3162 µM): 0.512
relative viability (Midostaurin + Vorinostat; first compound 0.01 µM): 0.566
relative viability (Midostaurin + Vorinostat; first compound 0.03162 µM): 0.571
relative viability (Midostaurin + Vorinostat; first compound 0.1 µM): 0.566
relative viability (Midostaurin + Vorinostat; first compound 0.3162 µM): 0.593
relative viability ([2]; first compound 0.0128 µM): 0.843
relative viability ([2]; first compound 0.04048 µM): 0.832
relative viability ([2]; first compound 0.128 µM): 0.79
relative viability ([2]; first compound 1.28 µM): 0.771
